Assay results reported in US8940719B2, “Lithocholic acid analogues that inhibit sialyltransferase” (Academia Sinica, priority 2006, dated 2015).

What was measured:
[1] = biological target: Rat liver α-2,3-ST (Rattus norvegicus (Rat), UniProt Q02734); assay: α-2,3-ST inhibition assay (IC50), RP-HPLC of sialylated disaccharide product; assay type: biochemical; conditions: for IC50: α-2,3-ST, CMP-Neu5Ac substrate, triplicate, read-out: IC50
Method: Compound synthesis was carried out with the following materials according the following general procedures. All chemicals and buffers were purchased from Sigma, Aldrich, or Acros Organics; and all amino acids were purchased from Advanced Chemtech. CMP-Neu5Ac was synthesized starting with sialic acid (Traving & Schauer, Cell. Mol. Life Sci., 1998, 54:1330; Schwarzkopf et al., Proc. Natl. Acad. Sci. USA, 2002, 99:5267). Synthesis of lactose acceptor was achieved as described in Harduin-Lepers et al., Biochimie, 2001, 83:727. Rat liver α-2,3-ST was obtained from CalBiochem at a concentration of 3.7 mU/μL, stored at −80° C., and used within one week. Melting points (m.p.) were recorded with a capillary melting point apparatus (Electrothermal MEL-TEMP); FT-IR spectra were recorded with Perkin Elmer FT-IR Spectrometer (Paragon 1000) in KBr pellets; ^1H and ^13C NMR spectra were recorded with Bruker AMX400 or 500 MHz instruments. Proton chemical shifts (δ) are reported in parts per million (ppm) relative to the methine singlet at 7.24 ppm for the residual CHCl3 in the deuteriochloroform, or the methyl pentet at 3.30 ppm for the residual CHD2OD in the methanol-d4. Carbon chemical shifts are reported in ppm relative to the internal ^13C signals in CDCl3 (77.0 ppm) and CD3OD-d4 (49.0 ppm). Mass spectra were obtained with a FAB JMS-700 double focusing mass spectrometer (JEOL, Tokyo, Japan), MALDI Voyager DE-PRO (Applied Biosystem Houston, USA), and ESI Finnigan LCQ mass spectrometer (Thermo Finnigan, San Jose, Calif., United States) in negative mode. […] The separation procedure was performed using H2O/0.1% trifluoroacetic acid (TFA) (A) and CH3CN/0.05% TFA (B) as eluents.
(§1) Each compound was tested for α-2,3-ST inhibition using CMP-Neu5Ac as a substrate and a modified disaccharide with a 4,5-dimethoxy-2-nitrobenzyl group as a UV-labeled acceptor. Specifically, inhibition assays were performed in triplicate in reaction solution containing 200 mM MES buffer, 100 mM sodium chloride, 0.5 mM disodium-EDTA, 0.01% Triton X-100, 20 μM modified disaccharide, 1.4 mU α-2,3-ST and inhibitor (in dimethyl sulfoxide) in a total volume of 55. Reactions were incubated at 37° C. for 10 minutes at which point 1 mM CMP-Neu5Ac (to a final concentration 3 μM) was added. The solution was then incubated at 37° C. until a detectable amount of product was produced. The reaction was terminated by quenching the solution mixture with heat at 100° C. for 5 minutes. Enzyme activity was determined by monitoring the quantity of sialylated disaccharide product produced over time at 348 nm by RP-HPLC (Supelco Discovery® HS C18, 5 μm, 4.6 mm×25 cm).

[2] = test system: CL1-5 lung cancer cells; assay: Cytotoxicity / cell growth, trypan blue exclusion; assay type: cell-based; conditions: 5 μM or 10 μM, 48 hours, FBS-free media
Method: To determine the effect of the synthesized membrane-permeable α-2,3-ST inhibitors disclosed in Example 1 on cellular processes, in vitro cytotoxicity and adhesion assays were performed on the highly metastatic lung cancer cell line CL1-5. CL1-5 cells were plated at 1×10^6 cells per 60 mm culture dish in DMEM containing 10% fetal bovine serum (FBS) in 5% CO2. The following day the media was replaced with FBS-free media containing inhibitors at 5 μM or 10 μM concentration in DMSO. Controls cells were treated with 0.1% DMSO-containing medium without inhibitor. Cell number and viability were determined 48 hours later by trypan blue exclusion. Treatment with three α-2,3-ST inhibitors, N-Pentyonic (compound 21), Lith-Triethyl-de (compound 20), and Lith-o-Asp (compound 13), inhibited CL1-5 cell growth by between 10-20% compared to control (FIG. 2A).

[3] = test system: CL1-5 lung cancer cells; assay: Wound healing (cell migration) assay; assay type: cell-based; conditions: 10 μM, 48 hours, vs DMSO control
Method: A section of cells was then scraped from the culture plate to form a gap, and cell migration into the “wound” was observation over 48 hours in the continuous presence of α-2,3-ST inhibitor.

[4] = test system: α-2,3-sialylated antigens on CL1-1 cells; assay: Cell surface α-2,3-sialylated antigens by FLOW cytometry (FITC-MAL), CL1-1; assay type: cell-based; conditions: both 5 μM and 20 μM, five days
Method: (§2) To determine whether α-2,3-ST inhibition alters cell surface glycosylation, lung cancer cells were treated with Lith-o-Asp and cell surface α-2,3-sialylated antigens were detected by FLOW cytometry. Cells were treated with α-2,3-ST inhibitor for five days after which 1×10^6 lung cancer cells were collected and washed twice with Hank's balanced salt solution (HBSS). Collected cells were incubated with FITC-conjugated MAL (1:50) at 37° C. for 15-20 minutes, non-binding MAL was removed by washing with HBSS, and 3×10^4 cells were detected on a FACScalibur instrument (Becton Dickinson). Two different lung cancer cell lines were tested: CL1-1 with low metastatic potential and CL1-5 with high metastatic potential. Since CL1-5 cells were derived from the CL1-1 line by an in vitro matrix gel invasion assay (Chen et al., Cancer Res., 2001, 61:5223), these cell lines share the same genetic background. Treatment of CL1-1 cells with Lith-o-Asp reduced expression of α-2,3-sialylated antigens to around 15% of DMSO treated control cells at both 5 μM and 20 μM (FIG. 4A). In contrast, Lith-o-Asp inhibited the expression of cell surface α-2,3-sialylated antigens in the highly metastatic CL1-5 lung cancer cells in a dose-dependent manner of greater than 15% (FIG. 4B).

[5] = test system: α-2,3-sialylated antigens on CL1-5 cells; assay: Cell surface α-2,3-sialylated antigens by FLOW cytometry (FITC-MAL), CL1-5; assay type: cell-based; conditions: dose-dependent, five days
Method: as §2

[6] = biological target: rat α-2,3-ST (Rattus norvegicus (Rat), UniProt Q02734); assay: Inhibition constant (Ki) determination, Lineweaver-Burk plot, varying CMP-Neu5Ac; assay type: biochemical; conditions: toward CMP-Neu5Ac
Method: as §1, with “cm). […]” for “cm).”
Reactions were prepared in inhibition assay reaction solution described above and were incubated for 10 minutes after which 0.3, 0.15, and 0.037 mM CMP-Neu5Ac was added in the presence of inhibitor at 5, 4.5, 3.5, 2.5, and 0 μM. […] The absolute Ki value was determined from the horizontal intercept of a Lineweaver-Burk plot with […] on the vertical axis and inhibitor concentration on the horizontal axis (FIG. 1).

[7] = biological target: α-2,3-ST; conditions: inhibition of α-2,3-ST, Hsu et al. 2005; cited from earlier work

Chain of Rat liver α-2,3-ST (Q02734 whole entry): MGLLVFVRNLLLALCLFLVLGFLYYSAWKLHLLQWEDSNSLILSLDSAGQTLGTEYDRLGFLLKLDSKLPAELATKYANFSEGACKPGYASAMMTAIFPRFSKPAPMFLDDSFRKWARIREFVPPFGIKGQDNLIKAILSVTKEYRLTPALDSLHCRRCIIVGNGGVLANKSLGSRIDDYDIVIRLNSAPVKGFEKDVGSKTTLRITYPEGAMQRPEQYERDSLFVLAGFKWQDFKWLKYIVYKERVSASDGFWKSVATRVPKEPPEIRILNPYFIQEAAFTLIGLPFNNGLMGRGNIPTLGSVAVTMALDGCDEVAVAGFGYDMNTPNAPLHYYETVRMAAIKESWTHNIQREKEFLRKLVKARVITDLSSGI
Chain of rat α-2,3-ST (Q02734 whole entry): as above

With C[C@H](CCC(=O)O)C1CC[C@H]2C3CC[C@@H]4C[C@H](OC(=O)[C@@H](N)CC(=O)O)CC[C@]4(C)C3CC[C@]12C (stereo partly drawn) [Compound 13, (R)-4-((3R,5R,10S,13R,14S)-3-((S)-2-amino-3-carboxypropanoyloxy)-10,13-dimethyl-hexadecahydro-1H-cyclopenta[a]phenanthren-17-yl)pentanoic acid] the “fold potency over lithocholic acid” value ([1]; vs lithocholic acid) was 2 fold, the IC50 [1] was 12 µM and the “inhibition of CL1-5 cell growth compared to control” value [2] was 10-20%. For the same compound, the “migration ability of CL1-5 cells” value ([3]; listed as Lith-O-Asp) was “inhibited cell migration”, the “migration ability of CL1-5 cells” value ([3]; listed as Lith-o-Asp) was “significantly decreased” and the “expression of α-2,3-sialylated antigens, % of DMSO treated control cells” value [4] was “around 15%”. For the same compound, the “inhibition of expression of cell surface α-2,3-sialylated antigens” value [5] was “greater than 15%”.
With C[C@H](CCCn1cc(CCCC(=O)O)nn1)C1CC[C@H]2C3CC[C@@H]4C[C@H](O)CC[C@]4(C)C3CC[C@]12C (stereo partly drawn) [Compound 22, 4-(1-((R)-4-((3R,5R,10S,13R,14S)-3-hydroxy-10,13-dimethyl-hexadecahydro-1H-cyclopenta[a]phenanthren-17-yl)pentyl)-1H-1,2,3-triazol-4-yl)butanoic acid] the IC50 [1] was 5 µM, the Ki [6] was 2200 nM and the type of inhibition [6] was “noncompetitive inhibition”.
For C[C@@H]1O[C@@H](O[C@H]2[C@H](O[C@H]3[C@H](O[C@H]4CC[C@@]5(C)[C@@H](CC[C@]6(C)[C@@H]5CC=C5[C@@H]7CC(C)(C)C[C@@H](O)[C@]7(C)CC[C@]56C)[C@@]4(C)CO)O[C@H](C(=O)O)[C@@H](O)[C@@H]3O)O[C@H](CO)[C@H](O)[C@@H]2O)[C@H](O)[C@H](O)[C@H]1O [Soyasaponin I], the Ki [7] is given as 2.1 mM.
